Consider six molecules from paper PMC8615155 (Antioxidants, 2021).

For series [1], the target named is T1, wild type TrxR1 (Rattus norvegicus, UniProt O89049).
T1 sequence (O89049 1-499): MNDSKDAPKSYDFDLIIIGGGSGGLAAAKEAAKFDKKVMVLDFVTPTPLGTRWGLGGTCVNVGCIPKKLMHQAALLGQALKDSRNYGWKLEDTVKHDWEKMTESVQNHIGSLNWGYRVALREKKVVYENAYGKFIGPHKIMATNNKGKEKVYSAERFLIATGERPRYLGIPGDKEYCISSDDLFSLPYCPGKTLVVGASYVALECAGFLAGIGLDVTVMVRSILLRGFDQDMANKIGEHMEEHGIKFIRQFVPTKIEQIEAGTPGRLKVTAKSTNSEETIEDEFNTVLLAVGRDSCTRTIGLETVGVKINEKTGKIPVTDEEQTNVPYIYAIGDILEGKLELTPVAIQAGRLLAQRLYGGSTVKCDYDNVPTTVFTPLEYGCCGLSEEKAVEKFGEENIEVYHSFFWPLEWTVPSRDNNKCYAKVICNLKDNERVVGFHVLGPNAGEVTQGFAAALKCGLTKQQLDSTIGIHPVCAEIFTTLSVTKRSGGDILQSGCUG
Put plainly: TrxR1 DTNB reduction assay.
Method: (§3) All food colorants were dissolved in DMSO to prepare a stock solution. […] 5,5′-dithiobis-2-nitrobenzoic acid (DTNB), 3-(4,5)-dimethylthiahiazo (-z-y1)-3,5-di-phenytetrazoliumromide (MTT) and ROS probe DCFH-DA were purchased from Sigma-Aldrich (St Louis, MI, USA). A 50 mM Tris-HCl containing 2 mM EDTA (pH 7.5) was used in all protein-based experiments, if not stated otherwise.
(§4) The enzymatic activities of TrxR1 and its various mutants were determined in parallel with DTNB and 9,10-panathrenequinone (9,10 PQ) as substrates [17]. In DTNB reduction assay, the working reaction mixtures contained 10 nM TrxR1, 2.5 mM DTNB and 300 µM NADPH in 50 mM Tris-HCl and 2 mM EDTA, pH 7.5. […] In the 9,10 PQ reduction assay, the working reaction mixtures contained 30 nM TrxR1, 30 µM 9,10 PQ and 200 µM NADPH, followed by NADPH oxidation at 340 nm for 20 min at room temperature, according to the linear region of the decrease curves (assuming ƐNADPH, 340 nm = 6200 M^−1 cm^−1).

The target in series [2] is T2, TrxR1 (Rattus norvegicus, UniProt O89049).
T2 sequence (O89049 1-499): T1 sequence (O89049 1-499)
Put plainly: NADPH oxidase activity of TrxR1 (juglone reduction). The format is biochemical. The conditions noted are these: 500 µM, 30 min in dark, juglone as substrate. As to the method:
NADPH oxidase activity of TrxR1 was measured by juglone reduction method. The final reaction mixture consisted of 30 nM TrxR1, 30 µM juglone (in DMSO) and 200 µM NADPH.

Series [3] concerns the target T1, wild type TrxR1.
Method: as §3, §4
The test system of series [4] is TrxR1. Also noted: method as in PMID 21262347. The conditions noted are these: cited from earlier work.
The subject of the next series is HCT116 cells. Put plainly: MTT cell viability HCT116. The note with it: for IC50: read-out: IC50 values on cancer cell lines. Format: cell-based, Human. The protocol:
(§1) Human HeLa, A549, HepG2, SH-SY5Y, MCF7 and AGS cells were cultured in DMEM containing 10% FBS, respectively. HCT116 cells were cultured in McCoy’s 5A medium (Procell, Wuhan, China) containing 10% FBS. The cells were cultured in medium containing 100 IU/mL penicillin, 100 µg/mL streptomycin (1% antibiotics) and 25 nM selenite at 37 °C in a humidified incubator with 5% CO2 (Thermo Fisher Scientific, Waltham, MA, USA).
(§2) MTT assay was used to detect cell viability. In brief, cells were seeded in 96-well plates with 5000 cells per well and allowed to stick overnight. […] After treatment, the cell medium was carefully removed from the cultured cells and added with 100 µL fresh FBS-free medium containing 0.5 mg/mL MTT. The medium was incubated in an incubator for 4 h. Then, the medium was removed, and the formazan crystals formed were dissolved in 100 µL DMSO. The absorbance was measured at 570 nm, and 630 nm was set as the reference. The experiments were repeated four times.

For another series, the system named is AGS cells. The series is described as follows: MTT cell viability AGS. Format: cell-based, Human. The protocol:
as §1, §2

Series [5] deals with HeLa cells. Put plainly: MTT cell viability HeLa. The format is cell-based, Human. The note with it: read-out: IC50 values on cancer cell lines. As to the method:
as §1, §2

The test system of series [6] is HeLa cells. The series is described as follows: ROS generation with DCFH-DA. The format is cell-based, Human. The conditions noted are these: 12 h, up to 50 µM. As to the method: After removing the medium, 10 µM DCFH-DA was added and incubated at 37 °C in darkness for 30 min. The cells were then observed and photographed using a Leica inverted fluorescence microscopy (Leica, Germany).

The test system of a further series is SH-SY5Y cells. The series is described as follows: MTT cell viability SH-SY5Y. The format is cell-based, Human. The note with it: 48 h, read-out: IC50 values on cancer cell lines. As to the method: as §1, §2
The next series concerns MCF7 cells. Put plainly: MTT cell viability MCF7. The format is cell-based, Human. The note with it: read-out: IC50 values on cancer cell lines. As to the method:
as §1, §2

A further series concerns HepG2 cells. The series is described as follows: MTT cell viability HepG2. The note with it: read-out: IC50 values on cancer cell lines. The format is cell-based, Human. The protocol: as §1, §2
The test system of a further series is A549 cells. Put plainly: MTT cell viability A549. The note with it: read-out: IC50 values on cancer cell lines. Format: cell-based, Human. The protocol:
as §1, §2

For series [7], the target named is T3, cellular TrxR in HeLa cells (Homo sapiens, UniProt Q16881).
T3 construct: endogenous in cells; host or cells: HeLa
T3 sequence (Q16881 1-499 isoform Q16881-5): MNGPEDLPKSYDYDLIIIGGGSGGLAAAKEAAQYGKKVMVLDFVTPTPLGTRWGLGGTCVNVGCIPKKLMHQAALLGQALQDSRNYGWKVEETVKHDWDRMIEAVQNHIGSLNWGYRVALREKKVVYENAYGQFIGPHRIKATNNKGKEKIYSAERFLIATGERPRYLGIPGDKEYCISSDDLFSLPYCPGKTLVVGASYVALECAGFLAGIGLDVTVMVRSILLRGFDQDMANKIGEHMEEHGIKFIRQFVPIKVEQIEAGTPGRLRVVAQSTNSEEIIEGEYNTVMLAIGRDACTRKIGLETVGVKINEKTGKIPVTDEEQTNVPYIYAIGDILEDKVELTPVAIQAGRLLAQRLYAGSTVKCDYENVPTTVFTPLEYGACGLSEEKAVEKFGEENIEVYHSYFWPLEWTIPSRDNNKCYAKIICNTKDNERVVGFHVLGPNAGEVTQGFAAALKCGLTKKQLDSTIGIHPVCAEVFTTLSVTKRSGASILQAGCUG
The series is described as follows: Cellular TrxR activity, end-point Trx-coupled insulin assay. Format: cell-based. The conditions noted are these: HeLa cells vs untreated controls. As to the method:
The cells were then collected and washed twice with ice-cold PBS. The total cell proteins were extracted with the RIPA buffer on ice for 30 min. The TrxR activities in the cell lysates were measured by the end-point Trx-coupled insulin assay and the protein concentration was determined by BCA protein assay kit (Sangon, Shanghai, China), using bovine serum albumin (BSA) as protein standard.

Read-outs that look alike come from different tables or passages of the source.

As for `CC1=C[C@H](O)CC(C)(C)[C@H]1/C=C/C(C)=C/C=C/C(C)=C/C=C/C=C(C)/C=C/C=C(C)/C=C/C1=C(C)C[C@@H](O)CC1(C)C` [lutein], the midpoint of inhibition against wild type TrxR1 [1], the IC50, lay at 306 µM. The “Inhibition of NADPH oxidation activity of TrxR1” value at TrxR1 [2] is given as “no inhibition”. The “Time dependence of TrxR1 inhibition” value at wild type TrxR1 [3] is on record as “time-dependent manner”.

For the molecule `C=CC1=C(C)c2cc3[nH]c(cc4nc(cc5[nH]c(cc1n2)c(C)c5CCC(=O)O)C(CCC(=O)O)=C4C)c(C)c3C=C` [PpIX], in the series with TrxR1 [4], the “Kinact in TrxR1 mediated Trx-coupled insulin reduction” value is 5 M⁻¹ s⁻¹. Besides, the Ki at TrxR1 [4] (read-out: apparent Ki on TrxR1's Trx reduction) was 2.7 µM.

With hemin, the “Kinact in TrxR1 mediated Trx-coupled insulin reduction” value in the series with TrxR1 [4] was 4.33 M⁻¹ s⁻¹.

`CC(=O)OC[C@H]1O[C@@H]([S-])[C@H](OC(C)=O)[C@@H](OC(C)=O)[C@@H]1OC(C)=O.CCP(CC)CC.[Au+]` [auranofin, reference compound]: the “Effect of pre-treatment on sensitivity of HCT116 cells to chlorophyllin” value in the series with HCT116 cells (auranofin 2.5 h pre-treatment, then chlorophyllin) is recorded as “increasing the sensitivity”.

In the case of `CC(=O)N[C@@H](CS)C(=O)O` [NAC, N-acetyl-L-cysteine, reference compound], the “Effect of co-treatment on chlorophyllin cytotoxicity” value in the series with HCT116 cells (HCT116, 100 µM or 500 µM NAC, 24 h co-treatment) is on record as “protect cell from chlorophyllin”; in the series on AGS cells (100 µM or 500 µM NAC, 24 h co-treatment), “protect cell from chlorophyllin”.

As for “Sodium copper chlorophyll [chlorophyllin]”, the half-inhibitory concentration (IC50) (as a rule, the concentration that inhibits the measured activity by half) in the series on HeLa cells [5] (24 h) amounted to 47.9 ± 13.5 µM; with HeLa cells [5] (48 h) it was 10.4 ± 4.3 µM; in the series with HCT116 cells (HCT116, 24 h), 43.5 ± 2.6 µM; with HCT116 cells (HCT116, 48 h), 20.2 ± 0.8 µM; in the series with SH-SY5Y cells, 31.7 ± 6.7 µM; in the series on MCF7 cells (MCF7, 24 h), 30.1 ± 7.1 µM. Also, the IC50 came to 6.9 ± 1.1 µM with MCF7 cells (MCF7, 48 h); 36.8 ± 11.2 µM in the series with HepG2 cells (HepG2, 24 h); 10.2 ± 3 µM in the series with HepG2 cells (HepG2, 48 h); 40.7 ± 3.9 µM in the series on A549 cells (A549, 24 h); 10.3 ± 1.4 µM in the series with A549 cells (A549, 48 h); 49.6 ± 24.7 µM in the series on AGS cells (48 h, read-out: IC50 values on cancer cell lines). Also, the “Fluorescent signals of ROS probe DCFH-DA” value in the series with HeLa cells [6] is listed as “much higher”. Also, the “Inhibition of cellular TrxR1 activity” value in series [7] is “remarkable inhibition”.
